12 molecules from patent US5698522A, “6-position modified decapeptide LHRH antagonists” (Abbott Laboratories, priority 1995, dated 1997) can be followed below.

By Kb is commonly meant the affinity of an antagonist, worked out from how it opposes an agonist.

This assay has as its target T1, LHRH receptor (Rattus norvegicus, UniProt P30969).
T1 construct: endogenous in cells
T1 sequence (P30969 1-327): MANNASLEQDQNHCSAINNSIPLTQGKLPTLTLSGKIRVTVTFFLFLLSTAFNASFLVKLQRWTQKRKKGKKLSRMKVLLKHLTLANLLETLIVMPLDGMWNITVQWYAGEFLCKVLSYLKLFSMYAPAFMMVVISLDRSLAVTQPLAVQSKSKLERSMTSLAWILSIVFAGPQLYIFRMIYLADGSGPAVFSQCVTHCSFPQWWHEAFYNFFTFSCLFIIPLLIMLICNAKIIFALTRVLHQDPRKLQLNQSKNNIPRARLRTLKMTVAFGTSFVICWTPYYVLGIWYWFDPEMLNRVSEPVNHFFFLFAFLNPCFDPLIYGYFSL
Briefly: in vitro LHRH antagonist potency (pA2) against the agonist leuprolide. The format is cell-based. The conditions noted are these: negative logarithm of the antagonist concentration which shifts the response curve produced by the agonist leuprolide to two-fold higher concentration. The essentials: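 Functional antagonism against the agonist leuprolide. pA2 is the negative log of antagonist concentration that shifts the leuprolide response curve to twofold higher concentration.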

*1 amine or outer side, *2 acyl side, *3 side chain or, on linkers, in order; H or OH if unused. Where a SMILES comes first, the peptide text is derived from it. Side-chain parts run from the residue outwards. [ ]: non-standard residue; d: D form. The star is where a group is joined. NMePhe(4-NH(5-NH2-Trz-3-yl)) = CN[C@@H](Cc1ccc(Nc2n[nH]c(N)n2)cc1)C(=O)O; Shikimoyl = O=C(C1=C[C@@H](O)[C@@H](O)[C@H](O)C1)*; dPhe(4-Cl) = N[C@H](Cc1ccc(Cl)cc1)C(=O)O; d2Nal = N[C@H](Cc1ccc2ccccc2c1)C(=O)O; Lys(iPr) = CC(C)NCCCC[C@H](N)C(=O)O; NMeY = CN[C@@H](Cc1ccc(O)cc1)C(=O)O; Ethylenediamine = C(CN[*:2])N[*:1]; d3Pal = N[C@H](Cc1cccnc1)C(=O)O; Nicotinoyl = O=C(c1cccnc1)*; dOrn = NCCC[C@@H](N)C(=O)O; CO = O=C([*:1])[*:2]; GABA = NCCCC(=O)O; azaGly = NNC(=O)O; βAla = NCCC(=O)O

`CC(=O)N[C@H](Cc1ccc2ccccc2c1)C(=O)N[C@H](Cc1ccc(Cl)cc1)C(=O)N[C@H](Cc1cccnc1)C(=O)N[C@@H](CO)C(=O)N(C)[C@@H](Cc1ccc(O)cc1)C(=O)N[C@H](CCCCNC(=O)[C@H](NC(=O)C1=C[C@@H](O)[C@@H](O)[C@H](O)C1)[C@H](C)O)C(=O)N[C@@H](CC(C)C)C(=O)N[C@@H](CCCNC(=N)N)C(=O)N1CCC[C@H]1C(=O)N[C@H](C)C(N)=O` [Example 48c, NAc-D2Nal^1 -D4ClPhe^2 -D3Pal^3 -Ser^4 -NMeTyr^5 -DLys(N-epsilon-D-Thr-Shikimyl)^6 -Leu^7 -Arg^8 -Pro^9 -DAla^10 NH2] (Ac-[d2Nal][dPhe(4-Cl)][d3Pal]S[NMeY][dK]([dT-Shikimoyl])LRP[dA]-NH2): the Kb is 0.0288 nM.

As for `CC(=O)N[C@H](Cc1ccc2ccccc2c1)C(=O)N[C@H](Cc1ccc(Cl)cc1)C(=O)N[C@H](Cc1cccnc1)C(=O)N[C@@H](CO)C(=O)N(C)[C@@H](Cc1ccc(O)cc1)C(=O)N[C@H](CCCCNC(=O)[C@@H](CO)NC(=O)c1cccnc1)C(=O)N[C@@H](CC(C)C)C(=O)N[C@@H](CCCNC(=N)N)C(=O)N1CCC[C@H]1C(=O)N[C@H](C)C(N)=O` [Example 7, NAc-D2Nal^1 -D4ClPhe^2 -D3Pal^3 -Ser^4 -NMeTyr^5 -DLys(N-epsilon-DSer-Nicotinyl)^6 -Leu^7 -Arg^8 -Pro^9 -DAla^10 NH2] (Ac-[d2Nal][dPhe(4-Cl)][d3Pal]S[NMeY][dK]([dS-Nicotinoyl])LRP[dA]-NH2), the Kb was 0.00891 nM.

Take `CC(=O)N[C@H](Cc1ccc2ccccc2c1)C(=O)N[C@H](Cc1ccc(Cl)cc1)C(=O)N[C@H](Cc1cccnc1)C(=O)N[C@@H](CO)C(=O)N(C)[C@@H](Cc1ccc(O)cc1)C(=O)N[C@H](CCCCNC(=O)CCNC(=O)c1cccnc1)C(=O)N[C@@H](CC(C)C)C(=O)N[C@@H](CCCCNC(C)C)C(=O)N1CCC[C@H]1C(=O)N[C@H](C)C(N)=O` [Example 4a] (Ac-[d2Nal][dPhe(4-Cl)][d3Pal]S[NMeY][dK]([βAla-Nicotinoyl])L[Lys(iPr)]P[dA]-NH2): the Kb was 0.00562 nM.

On to `CC(=O)N[C@@H](CO)C(=O)NCCCC[C@@H](NC(=O)[C@H](Cc1ccc(O)cc1)N(C)C(=O)[C@H](CO)NC(=O)[C@@H](Cc1cccnc1)NC(=O)[C@@H](Cc1ccc(Cl)cc1)NC(=O)[C@@H](Cc1ccc2ccccc2c1)NC(C)=O)C(=O)N[C@@H](CC(C)C)C(=O)N[C@@H](CCCNC(=N)N)C(=O)N1CCC[C@H]1C(=O)N[C@H](C)C(N)=O` [Example 9, NAc-D2Nal^1 -D4ClPhe^2 -D3Pal^3 -Ser^4 -NMeTyr^5 -DLys(N-epsilon-Ser-Acetyl)^6 -Leu^7 -Arg^8 -Pro^9 -DAla^10 NH2] (Ac-[d2Nal][dPhe(4-Cl)][d3Pal]S[NMeY][dK]([Ser-Ac])LRP[dA]-NH2), for which the antagonist equilibrium constant (Kb) was 0.00891 nM.

As to `CC(=O)N[C@H](Cc1ccc2ccccc2c1)C(=O)N[C@H](Cc1ccc(Cl)cc1)C(=O)N[C@H](Cc1cccnc1)C(=O)N[C@@H](CO)C(=O)N(C)[C@@H](Cc1ccc(Nc2n[nH]c(N)n2)cc1)C(=O)N[C@H](CCCCNC(=O)CNC(=O)c1cccnc1)C(=O)N[C@@H](CC(C)C)C(=O)N[C@@H](CCCCNC(C)C)C(=O)N1CCC[C@H]1C(=O)N[C@H](C)C(N)=O` [Example 45, NAc-D2Nal^1 -D4ClPhe^2 -D3Pal^3 -Ser^4 -NMePhe(Atz)^5 -DLys(N-epsilon-Gly-Nicotinyl)^6 -Leu^7 -Lys(N-epsilon-Isopropyl)^8 -Pro^9 -DAla^10 NH2] (Ac-[d2Nal][dPhe(4-Cl)][d3Pal]S[NMePhe(4-NH(5-NH2-Trz-3-yl))][dK]([Gly-Nicotinoyl])L[Lys(iPr)]P[dA]-NH2), the Kb is 0.00417 nM.

Turning to `CC(=O)N[C@H](Cc1ccc2ccccc2c1)C(=O)N[C@H](Cc1ccc(Cl)cc1)C(=O)N[C@H](Cc1cccnc1)C(=O)N[C@@H](CO)C(=O)N(C)[C@@H](Cc1ccc(O)cc1)C(=O)N[C@H](CCCCNC(=O)[C@@H](Cc1cccnc1)NC(=O)C1=C[C@@H](O)[C@@H](O)[C@H](O)C1)C(=O)N[C@@H](CC(C)C)C(=O)N[C@@H](CCCNC(=N)N)C(=O)N1CCC[C@H]1C(=O)N[C@H](C)C(N)=O` [Example 48i, NAc-D2Nal^1 -D4ClPhe^2 -D3Pal^3 -Ser^4 -NMeTyr^5 -DLys(N-epsilon-D-3Pal-Shikimyl)^6 -Leu^7 -Arg^8 -Pro^9 -DAla^10 NH2] (Ac-[d2Nal][dPhe(4-Cl)][d3Pal]S[NMeY][dK]([d3Pal-Shikimoyl])LRP[dA]-NH2), the Kb is 0.0363 nM.

`CC(=O)N[C@H](Cc1ccc2ccccc2c1)C(=O)N[C@H](Cc1ccc(Cl)cc1)C(=O)N[C@H](Cc1cccnc1)C(=O)N[C@@H](CO)C(=O)N(C)[C@@H](Cc1ccc(O)cc1)C(=O)N[C@H](CCCNC(=O)[C@@H](CO)NC(=O)C1=C[C@@H](O)[C@@H](O)[C@H](O)C1)C(=O)N[C@@H](CC(C)C)C(=O)N[C@@H](CCCNC(=N)N)C(=O)N1CCC[C@H]1C(=O)N[C@H](C)C(N)=O` [Example 49d, NAc-D2Nal^1 -D4ClPhe^2 -D3Pal^3 -Ser^4 -NMeTyr^5 -DOrn(N-epsilon-DSer-Shikimyl)^6 -Leu^7 -Arg^8 -Pro^9 -DAla^10 NH2] (Ac-[d2Nal][dPhe(4-Cl)][d3Pal]S[NMeY][dOrn]([dS-Shikimoyl])LRP[dA]-NH2): the Kb was 0.00166 nM.

For `CC(=O)N[C@H](Cc1ccc2ccccc2c1)C(=O)N[C@H](Cc1ccc(Cl)cc1)C(=O)N[C@H](Cc1cccnc1)C(=O)N[C@@H](CO)C(=O)N(C)[C@@H](Cc1ccc(O)cc1)C(=O)N[C@H](CCCCNC(=O)NCCNC(=O)c1cccnc1)C(=O)N[C@@H](CC(C)C)C(=O)N[C@@H](CCCCNC(C)C)C(=O)N1CCC[C@H]1C(=O)N[C@H](C)C(N)=O` [Example 62, NAc-D2Nal^1 -D4ClPhe^2 -D3Pal^3 -Ser^4 -NMeTyr^5 -DLys(N-epsilon-N'-Carbonyl-Diaminoethane-N"-Nicotinyl)^6 -Leu^7 -Lys(N-epsilon-Isopropyl)^8 -Pro^9 -DAla^10 NH2] (Ac-[d2Nal][dPhe(4-Cl)][d3Pal]S[NMeY][dK]([CO-Ethylenediamine-Nicotinoyl])L[Lys(iPr)]P[dA]-NH2), the antagonist dissociation constant (Kb) is 0.0263 nM.

Take `CC(=O)N[C@H](Cc1ccc2ccccc2c1)C(=O)N[C@H](Cc1ccc(Cl)cc1)C(=O)N[C@H](Cc1cccnc1)C(=O)N[C@@H](CO)C(=O)N(C)[C@@H](Cc1ccc(O)cc1)C(=O)N[C@H](CCCCNC(=O)[C@@H](CO)NC(=O)c1cccnc1)C(=O)N[C@@H](CC(C)C)C(=O)N[C@@H](CCCCNC(C)C)C(=O)N1CCC[C@H]1C(=O)N[C@H](C)C(N)=O` [Example 4c, NAc-D2Nal^1 -D4ClPhe^2 -D3Pal^3 -Ser^4 -NMeTyr^5 -DLys[N-epsilon-DSer-Nicotinyl]^6 -Leu^7 -Lys(N-epsilon-Isopropyl)^8 -Pro^9 -DAla^10 NH2] (Ac-[d2Nal][dPhe(4-Cl)][d3Pal]S[NMeY][dK]([dS-Nicotinoyl])L[Lys(iPr)]P[dA]-NH2): the antagonist dissociation constant (Kb) was 0.0158 nM.

For `CC(=O)N[C@H](Cc1ccc2ccccc2c1)C(=O)N[C@H](Cc1ccc(Cl)cc1)C(=O)N[C@H](Cc1cccnc1)C(=O)N[C@@H](CO)C(=O)N(C)[C@@H](Cc1ccc(O)cc1)C(=O)N[C@H](CCCCNC(=O)CCCNC(=O)NNC(=O)c1cccnc1)C(=O)N[C@@H](CC(C)C)C(=O)N[C@@H](CCCCNC(C)C)C(=O)N1CCC[C@H]1C(=O)N[C@H](C)C(N)=O` [Example 25b, NAc-D2Nal^1 -D4ClPhe^2 -D3Pal^3 -Ser^4 -NMeTyr^5 -DLys[N-epsilon-(gamma-Aminobutyryl)-Azagly-Nicotinyl]^6 -Leu^7 -Lys(N-epsilon-Isopropyl)^8 -Pro^9 -DAla^10 NH2] (Ac-[d2Nal][dPhe(4-Cl)][d3Pal]S[NMeY][dK]([GABA-azaGly-Nicotinoyl])L[Lys(iPr)]P[dA]-NH2), the Kb is 0.0407 nM.

For the molecule `CC(=O)N[C@H](Cc1ccc2ccccc2c1)C(=O)N[C@H](Cc1ccc(Cl)cc1)C(=O)N[C@H](Cc1cccnc1)C(=O)N[C@@H](CO)C(=O)N(C)[C@@H](Cc1ccc(O)cc1)C(=O)N[C@H](CCCCNC(=O)NCCNC(=O)C1=C[C@@H](O)[C@@H](O)[C@H](O)C1)C(=O)N[C@@H](CC(C)C)C(=O)N[C@@H](CCCNC(=N)N)C(=O)N1CCC[C@H]1C(=O)N[C@H](C)C(N)=O` [Example 15, NAc-D2Nal^1 -D4ClPhe^2 -D3Pal^3 -Ser^4 -NMeTyr^5 -DLys[N-epsilon-(N'-Carbonyl-Diaminoethane-N"-Shikimyl)]^6 -Leu^7 -Arg^8 -Pro^9 -DAla^10 NH2] (Ac-[d2Nal][dPhe(4-Cl)][d3Pal]S[NMeY][dK]([CO-Ethylenediamine-Shikimoyl])LRP[dA]-NH2), the Kb is 0.00282 nM.

Regarding `CC(=O)N[C@H](Cc1ccc2ccccc2c1)C(=O)N[C@H](Cc1ccc(Cl)cc1)C(=O)N[C@H](Cc1cccnc1)C(=O)N[C@@H](CO)C(=O)N(C)[C@@H](Cc1ccc(O)cc1)C(=O)N[C@H](CCCCNC(=O)CCCNC(=O)c1cccnc1)C(=O)N[C@@H](CC(C)C)C(=O)N[C@@H](CCCCNC(C)C)C(=O)N1CCC[C@H]1C(=O)N[C@H](C)C(N)=O` [Example 4b, NAc-D2Nal^1 -D4ClPhe^2 -D3Pal^3 -Ser^4 -NMeTyr^5 -DLys[N-epsilon-(gamma-Aminobutyryl)Nicotinyl]^6 -Leu^7 -Lys(N-epsilon-Isopropyl)^8 -Pro^9 -DAla^10 NH2] (Ac-[d2Nal][dPhe(4-Cl)][d3Pal]S[NMeY][dK]([GABA-Nicotinoyl])L[Lys(iPr)]P[dA]-NH2), the Kb was 0.0234 nM.
